Tests used:
[1] = target: T1, Endothelin receptor type B (Rattus norvegicus) (UniProt P21451); assay: Concentration required to produce 50% inhibition of binding against ET B receptor obtained from rat brain membrane
T1 sequence (whole entry): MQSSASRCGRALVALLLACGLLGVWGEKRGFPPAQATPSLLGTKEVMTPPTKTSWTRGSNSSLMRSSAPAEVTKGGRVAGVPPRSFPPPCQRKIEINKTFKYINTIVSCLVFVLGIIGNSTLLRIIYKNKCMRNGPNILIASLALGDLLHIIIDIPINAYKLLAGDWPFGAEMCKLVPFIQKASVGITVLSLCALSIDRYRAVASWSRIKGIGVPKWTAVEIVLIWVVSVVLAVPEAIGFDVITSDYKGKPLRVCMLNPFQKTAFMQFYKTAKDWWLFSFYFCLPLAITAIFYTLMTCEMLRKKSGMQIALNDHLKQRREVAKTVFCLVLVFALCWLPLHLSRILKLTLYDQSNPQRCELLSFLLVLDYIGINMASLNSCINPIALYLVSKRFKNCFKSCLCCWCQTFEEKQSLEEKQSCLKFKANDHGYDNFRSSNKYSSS

[2] = target: T2, Endothelin-1 receptor (Rattus norvegicus) (UniProt P26684); assay: Concentration required to produce 50% inhibition of binding against ET A receptor obtained from rat thoracic aortic membrane
T2 sequence (whole entry): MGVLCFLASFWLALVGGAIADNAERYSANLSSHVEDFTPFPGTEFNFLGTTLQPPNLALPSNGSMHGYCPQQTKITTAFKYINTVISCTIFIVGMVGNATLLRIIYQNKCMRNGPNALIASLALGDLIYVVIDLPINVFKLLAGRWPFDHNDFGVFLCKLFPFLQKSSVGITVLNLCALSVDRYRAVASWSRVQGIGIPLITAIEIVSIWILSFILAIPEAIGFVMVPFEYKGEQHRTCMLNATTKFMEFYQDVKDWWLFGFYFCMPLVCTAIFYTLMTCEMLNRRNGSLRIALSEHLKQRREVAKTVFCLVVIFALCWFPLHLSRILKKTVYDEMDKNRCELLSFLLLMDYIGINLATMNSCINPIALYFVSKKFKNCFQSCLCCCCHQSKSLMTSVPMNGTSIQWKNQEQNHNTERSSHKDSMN

Compound	pIC50 [1]	pIC50 [2]
CC[C@@H](C)[C@H](NC(=O)[C@H](CC(=O)O)NC(=O)[C@H](CC(C)C)NC(=O)[C@H](Cc1c[nH]cn1)NC(=O)[C@H](CS)NC(=O)[C@H](Cc1ccccc1)NC(=O)[C@H](Cc1ccc(O)cc1)NC(=O)[C@@H](NC(=O)[C@H](CS)NC(=O)[C@H](CCC(=O)O)NC(=O)[C@H](CCCCN)NC(=O)[C@H](CC(=O)O)NC(=O)[C@H](CCSC)NC(=O)[C@H](CC(C)C)NC(=O)[C@H](CO)NC(=O)[C@H](CO)NC(=O)[C@H](CS)NC(=O)[C@H](CO)NC(=O)[C@@H](N)CS)C(C)C)C(=O)N[C@H](C(=O)N[C@@H](Cc1c[nH]c2ccccc12)C(=O)O)c1ccccc1	9.76	8.89
CC[C@@H](C)[C@H](NC(=O)[C@H](CC(=O)O)NC(=O)[C@H](CC(C)C)NC(=O)[C@H](Cc1c[nH]cn1)NC(=O)[C@H](CS)NC(=O)[C@H](Cc1ccccc1)NC(=O)[C@H](Cc1ccc(O)cc1)NC(=O)[C@@H](NC(=O)[C@H](CS)NC(=O)[C@H](CCC(=O)O)NC(=O)[C@H](CCCCN)NC(=O)[C@H](CC(=O)O)NC(=O)[C@H](CCSC)NC(=O)[C@H](CC(C)C)NC(=O)[C@H](CO)NC(=O)[C@H](CO)NC(=O)[C@H](CS)NC(=O)[C@H](CO)NC(=O)[C@@H](N)CS)C(C)C)C(=O)N[C@@H](C(=O)N[C@@H](Cc1c[nH]c2ccccc12)C(=O)O)C(C)C	9.05	9
CC[C@@H](C)[C@H](NC(=O)[C@H](CC(=O)O)NC(=O)[C@H](CC(C)C)NC(=O)[C@H](Cc1c[nH]cn1)NC(=O)[C@H](CS)NC(=O)[C@H](Cc1ccccc1)NC(=O)[C@H](Cc1ccc(O)cc1)NC(=O)[C@@H](NC(=O)[C@H](CS)NC(=O)[C@H](CCC(=O)O)NC(=O)[C@H](CCCCN)NC(=O)[C@H](CC(=O)O)NC(=O)[C@H](CCSC)NC(=O)[C@H](CC(C)C)NC(=O)[C@H](CO)NC(=O)[C@H](CO)NC(=O)[C@H](CS)NC(=O)[C@H](CO)NC(=O)[C@@H](N)CS)C(C)C)C(=O)N[C@H](Cc1ccccc1)C(=O)N[C@@H](Cc1c[nH]c2ccccc12)C(=O)O	8.6	6.07
CCC(CC)C[C@@H](NC(=O)[C@@H](NC(=O)[C@H](CC(=O)O)NC(=O)[C@H](CC(C)C)NC(=O)[C@H](Cc1c[nH]cn1)NC(=O)[C@H](CS)NC(=O)[C@H](Cc1ccccc1)NC(=O)[C@H](Cc1ccc(O)cc1)NC(=O)[C@@H](NC(=O)[C@H](CS)NC(=O)[C@H](CCC(=O)O)NC(=O)[C@H](CCCCN)NC(=O)[C@H](CC(=O)O)NC(=O)[C@H](CCSC)NC(=O)[C@H](CC(C)C)NC(=O)[C@H](CO)NC(=O)[C@H](CO)NC(=O)[C@H](CS)NC(=O)[C@H](CO)NC(=O)[C@@H](N)CS)C(C)C)[C@H](C)CC)C(=O)N[C@@H](Cc1c[nH]c2ccccc12)C(=O)O	9.78	8.06
CC[C@@H](C)[C@H](NC(=O)[C@H](CC(=O)O)NC(=O)[C@H](CC(C)C)NC(=O)[C@H](Cc1c[nH]cn1)NC(=O)[C@H](CS)NC(=O)[C@H](Cc1ccccc1)NC(=O)[C@H](Cc1ccc(O)cc1)NC(=O)[C@@H](NC(=O)[C@H](CS)NC(=O)[C@H](CCC(=O)O)NC(=O)[C@H](CCCCN)NC(=O)[C@H](CC(=O)O)NC(=O)[C@H](CCSC)NC(=O)[C@H](CC(C)C)NC(=O)[C@H](CO)NC(=O)[C@H](CO)NC(=O)[C@H](CS)NC(=O)[C@H](CO)NC(=O)[C@@H](N)CS)C(C)C)C(=O)N[C@@H](C)C(=O)N[C@@H](Cc1c[nH]c2ccccc12)C(=O)O	9.4	7.53
CC[C@@H](C)[C@H](NC(=O)[C@H](CC(=O)O)NC(=O)[C@H](CC(C)C)NC(=O)[C@H](Cc1c[nH]cn1)NC(=O)[C@H](CS)NC(=O)[C@H](Cc1ccccc1)NC(=O)[C@H](Cc1ccc(O)cc1)NC(=O)[C@@H](NC(=O)[C@H](CS)NC(=O)[C@H](CCC(=O)O)NC(=O)[C@H](CCCCN)NC(=O)[C@H](CC(=O)O)NC(=O)[C@H](CCSC)NC(=O)[C@H](CC(C)C)NC(=O)[C@H](CO)NC(=O)[C@H](CO)NC(=O)[C@H](CS)NC(=O)[C@H](CO)NC(=O)[C@@H](N)CS)C(C)C)C(=O)N[C@@H](Cc1c[nH]c2ccccc12)C(=O)N[C@@H](Cc1c[nH]c2ccccc12)C(=O)O	9.77	6.71
CC[C@@H](C)[C@H](NC(=O)[C@H](CC(=O)O)NC(=O)[C@H](CC(C)C)NC(=O)[C@H](Cc1c[nH]cn1)NC(=O)[C@H](CS)NC(=O)[C@H](Cc1ccccc1)NC(=O)[C@H](Cc1ccc(O)cc1)NC(=O)[C@@H](NC(=O)[C@H](CS)NC(=O)[C@H](CCC(=O)O)NC(=O)[C@H](CCCCN)NC(=O)[C@H](CC(=O)O)NC(=O)[C@H](CCSC)NC(=O)[C@H](CC(C)C)NC(=O)[C@H](CO)NC(=O)[C@H](CO)NC(=O)[C@H](CS)NC(=O)[C@H](CO)NC(=O)[C@@H](N)CS)C(C)C)C(=O)N[C@H](CCC(N)=O)C(=O)N[C@@H](Cc1c[nH]c2ccccc12)C(=O)O	5.59	5.27
CC[C@@H](C)[C@H](NC(=O)[C@H](CC(=O)O)NC(=O)[C@H](CC(C)C)NC(=O)[C@H](Cc1c[nH]cn1)NC(=O)[C@H](CS)NC(=O)[C@H](Cc1ccccc1)NC(=O)[C@H](Cc1ccc(O)cc1)NC(=O)[C@@H](NC(=O)[C@H](CS)NC(=O)[C@H](CCC(=O)O)NC(=O)[C@H](CCCCN)NC(=O)[C@H](CC(=O)O)NC(=O)[C@H](CCSC)NC(=O)[C@H](CC(C)C)NC(=O)[C@H](CO)NC(=O)[C@H](CO)NC(=O)[C@H](CS)NC(=O)[C@H](CO)NC(=O)[C@@H](N)CS)C(C)C)C(=O)N[C@H](Cc1c[nH]cn1)C(=O)N[C@@H](Cc1c[nH]c2ccccc12)C(=O)O	7.55	6.13
CC[C@@H](C)[C@H](NC(=O)[C@H](CC(=O)O)NC(=O)[C@H](CC(C)C)NC(=O)[C@H](Cc1c[nH]cn1)NC(=O)[C@H](CS)NC(=O)[C@H](Cc1ccccc1)NC(=O)[C@H](Cc1ccc(O)cc1)NC(=O)[C@@H](NC(=O)[C@H](CS)NC(=O)[C@H](CCC(=O)O)NC(=O)[C@H](CCCCN)NC(=O)[C@H](CC(=O)O)NC(=O)[C@H](CCSC)NC(=O)[C@H](CC(C)C)NC(=O)[C@H](CO)NC(=O)[C@H](CO)NC(=O)[C@H](CS)NC(=O)[C@H](CO)NC(=O)[C@@H](N)CS)C(C)C)C(=O)N[C@H](CC(C)C)C(=O)N[C@@H](Cc1c[nH]c2ccccc12)C(=O)O	9.94	7.97
CC[C@@H](C)[C@H](NC(=O)[C@H](CC(=O)O)NC(=O)[C@H](CC(C)C)NC(=O)[C@H](Cc1c[nH]cn1)NC(=O)[C@H](CS)NC(=O)[C@H](Cc1ccccc1)NC(=O)[C@H](Cc1ccc(O)cc1)NC(=O)[C@@H](NC(=O)[C@H](CS)NC(=O)[C@H](CCC(=O)O)NC(=O)[C@H](CCCCN)NC(=O)[C@H](CC(=O)O)NC(=O)[C@H](CCSC)NC(=O)[C@H](CC(C)C)NC(=O)[C@H](CO)NC(=O)[C@H](CO)NC(=O)[C@H](CS)NC(=O)[C@H](CO)NC(=O)[C@@H](N)CS)C(C)C)C(=O)N[C@H](C(=O)N[C@@H](Cc1c[nH]c2ccccc12)C(=O)O)[C@H](C)CC		9.93
CC[C@@H](C)[C@H](NC(=O)[C@H](CC(=O)O)NC(=O)[C@H](CC(C)C)NC(=O)[C@H](Cc1c[nH]cn1)NC(=O)[C@H](CS)NC(=O)[C@H](Cc1ccccc1)NC(=O)[C@H](Cc1ccc(O)cc1)NC(=O)[C@@H](NC(=O)[C@H](CS)NC(=O)[C@H](CCC(=O)O)NC(=O)[C@H](CCCCN)NC(=O)[C@H](CC(=O)O)NC(=O)[C@H](CCSC)NC(=O)[C@H](CC(C)C)NC(=O)[C@H](CO)NC(=O)[C@H](CO)NC(=O)[C@H](CS)NC(=O)[C@H](CO)NC(=O)[C@@H](N)CS)C(C)C)C(=O)N[C@@H](C(=O)N[C@@H](Cc1c[nH]c2ccccc12)C(=O)O)[C@H](C)CC		7.59
